Data set [1] concerns the target T1, full-length TDP1 (Homo sapiens, UniProt Q9NUW8).
T1 construct: was incubated with recombinant full-length TDP1 or TDP1 (148–608) (40 p.m.)
Set-up: method as in Zhao et al., 2021. The conditions noted are these: gel-based fluorescence assay, compounds reported in previous paper, ref Zhao et al., 2021; cited from earlier work.

Another data set concerns the target T2, TDP1 (148–608) (Homo sapiens, UniProt Q9NUW8).
T2 construct: was incubated with recombinant full-length TDP1 or TDP1 (148–608) (40 p.m.)
The data set can be described thus: Gel-based fluorescence assay of TDP1-catalyzed hydrolysis, truncated TDP1 (148–608). Type of data set: biochemical. The conditions noted are these: for IC50: truncated TDP1 (148–608) catalytic domain, 5′-Cy5 N14Y DNA substrate, 15 min, room temperature, repeated three times. The procedure: (§1) The synthetic products were examined for their ability to inhibit TDP1 catalysis in in vitro gel-based fluorescence assays as previously described ([Lountos et al., 2019]; [Zhao et al., 2021]). A 5′-Cy5-labelled DNA substrate (N14Y, 5′-Cy5-[…]-pY-3′) was incubated in TDP1 reaction buffer with recombinant TDP1 ([…].) or truncated TDP1 (148–608) in the absence or presence of inhibitors for 15 min at room temperature. Inhibitors were evaluated at concentrations ranging from 12 μM to 27 mM (Figure 4). The TDP1 inhibition values were calculated based on gel images of cleavage product (N14P, 5′-Cy5-[…]-p-3′) shown in Figure 4 and listed in Table 1.
(§2) The inhibition of TDP1 was also conducted according to gel-based as previously described ([Lountos et al., 2019]; [Zhao et al., 2021]). Briefly, the DNA substrate (1 nM, 5′Cy5-[…]-pY-3′) was incubated with recombinant full-length TDP1 or TDP1 (148–608) (40 p.m.) in the absence or presence of inhibitors for 15 min at room temperature in TDP1 reaction buffer (50 mM Tris HCl, pH 7.5, 80 mM KCl, 2 mM EDTA, 1 mM DTT, 40 μg/ml BSA and 0.01% Tween-20). Reactions were stopped by adding an equal volume of gel loading buffer (99.5% (v/v) formamide, 5 mM EDTA). Samples were then subjected to a 20% denaturing PAGE gel following by gel scanning using a Typhoon FLA 9500 scanner (GE Healthcare). The IC50 values of TDP1 inhibitors were calculated by comparing the percentage of cleavage product (5′Cy5-[…]-p-3′) to DMSO control.

The target of data set [2] is T1, full-length TDP1. The data set can be described thus: Gel-based fluorescence assay of TDP1-catalyzed hydrolysis, full-length TDP1. Type of data set: biochemical. The conditions noted are these: for IC50: full-length recombinant TDP1, 5′-Cy5 N14Y DNA substrate, 15 min, room temperature, repeated three times. The procedure:
as §1, §2

Data set [3] can be described thus: Drug solubility observed at high concentrations in the gel assay. The conditions noted are these: high concentrations in TDP1 gel assay (crescent vague bands); series up to 9 mM (3c) or 27 mM. The class given is physicochemical. The procedure: FIGURE 4 Representative gels for inhibition of full-length TDP1-catalyzed hydrolysis by phenylphosphonic acids 3a—3e and benzylphosphonic acids 4a—4c. In each gel: lane 1, N14Y only; lane 2, N14Y and TDP1; lanes 3–10, 3-fold serial dilution of drugs from 12 μM to 27 mM except for 3c from 12 μM to 9 mM.

Like-named read-outs stand apart in the source and are kept apart here.

T1 sequence (Q9NUW8 whole entry): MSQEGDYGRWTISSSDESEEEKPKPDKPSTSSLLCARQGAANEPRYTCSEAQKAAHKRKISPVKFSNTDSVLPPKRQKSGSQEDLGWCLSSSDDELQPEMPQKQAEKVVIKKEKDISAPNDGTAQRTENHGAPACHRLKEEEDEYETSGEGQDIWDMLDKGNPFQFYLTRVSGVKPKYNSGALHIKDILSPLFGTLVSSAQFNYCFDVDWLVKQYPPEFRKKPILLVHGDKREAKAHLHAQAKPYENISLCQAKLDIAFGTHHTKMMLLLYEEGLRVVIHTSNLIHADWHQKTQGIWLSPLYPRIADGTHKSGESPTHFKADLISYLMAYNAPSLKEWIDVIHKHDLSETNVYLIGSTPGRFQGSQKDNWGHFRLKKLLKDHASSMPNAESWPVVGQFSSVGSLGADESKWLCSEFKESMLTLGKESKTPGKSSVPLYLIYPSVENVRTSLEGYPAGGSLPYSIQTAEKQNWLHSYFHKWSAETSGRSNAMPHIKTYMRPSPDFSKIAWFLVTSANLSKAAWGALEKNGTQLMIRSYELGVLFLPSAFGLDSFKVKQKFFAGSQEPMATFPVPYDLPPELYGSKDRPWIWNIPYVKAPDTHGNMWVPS
T2 sequence (Q9NUW8 148-608): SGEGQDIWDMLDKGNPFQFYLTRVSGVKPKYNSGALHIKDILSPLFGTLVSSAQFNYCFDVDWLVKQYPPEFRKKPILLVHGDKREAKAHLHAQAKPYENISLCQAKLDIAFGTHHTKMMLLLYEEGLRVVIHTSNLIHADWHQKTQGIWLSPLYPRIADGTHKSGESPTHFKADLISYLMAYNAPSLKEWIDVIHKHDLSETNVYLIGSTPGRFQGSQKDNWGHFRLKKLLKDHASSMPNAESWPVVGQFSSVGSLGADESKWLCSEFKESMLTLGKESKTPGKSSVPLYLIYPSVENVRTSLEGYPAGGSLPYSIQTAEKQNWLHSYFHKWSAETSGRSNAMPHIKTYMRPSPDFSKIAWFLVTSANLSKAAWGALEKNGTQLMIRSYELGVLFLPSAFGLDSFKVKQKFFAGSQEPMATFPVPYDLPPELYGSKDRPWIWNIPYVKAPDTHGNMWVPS

As a reminder, the IC50 is the midpoint of a concentration-inhibition curve. Consider `O=C(O)c1ccc(Nc2c(-c3ccccc3)nc3cnccn23)cc1C(=O)O` [Compound 2a], for which, at full-length TDP1 [1], the half-inhibitory concentration (IC50) was over 100 µM.
In the case of `O=P(O)(O)c1ccc(Nc2c(-c3ccccc3)nc3ccccn23)cc1` [Compound 3b, (4-((2-Phenylimidazo [1,2-a]pyridin-3-yl)amino)phenyl)phosphonic acid], the IC50 worked out at 3810 ± 751 µM against TDP1 (148–608) and 1660 ± 160 µM on full-length TDP1 [2].
Regarding `O=P(O)(O)c1ccc(Nc2c(-c3ccccc3O)nc3cc(-c4ccccc4)ccn23)cc1` [Compound 3e, (4-((2-(2-Hydroxyphenyl)-7-phenylimidazo [1,2-a]pyridin-3-yl)amino)phenyl)phosphonic acid], the IC50 was 605 ± 32 µM at TDP1 (148–608) and 293 ± 7.5 µM at full-length TDP1 [2]. In data set [3], the Drug solubility result was “poor drug solubility”.
On to `O=P(O)(O)Cc1ccc(Nc2c(-c3ccccc3)nc3ccccn23)cc1` [Compound 4b, (4-((2-Phenylimidazo [1,2-a]pyridin-3-yl)amino)benzyl)phosphonic acid], for which the IC50 against TDP1 (148–608) was 4810 ± 228 µM; on full-length TDP1 [2], 1650 ± 850 µM.
With `O=P(O)(O)c1ccc(Nc2c(-c3ccccc3)nc3cc(-c4ccccc4)ccn23)cc1` [Compound 3c, (4-((2,7-Diphenylimidazo [1,2-a]pyridin-3-yl)amino)phenyl)phosphonic acid], the “More potent using catalytic domain TDP1 (148–608) relative to full-length TDP1” value at TDP1 (148–608) (TDP1 (148–608) vs full-length TDP1) is reported as 2 fold. For the same compound, the IC50 against TDP1 (148–608) is 225 ± 2.3 µM; on full-length TDP1 [2], 545 ± 8 µM. In addition, the Drug solubility result in data set [3] is listed as “poor drug solubility”.
On to `O=P(O)(O)c1ccc(Nc2c(-c3ccccc3O)nc3ccccn23)cc1` [Compound 3d, (4-((2-(2-Hydroxyphenyl)imidazo [1,2-a]pyridin-3-yl)amino)phenyl)phosphonic acid], for which the IC50 is 4480 ± 50 µM at TDP1 (148–608) and 1580 ± 166 µM at full-length TDP1 [2].
The like results for `O=P(O)(O)Cc1ccc(Nc2c(-c3ccccc3)nc3cnccn23)cc1` [Compound 4a, (4-((2-Phenylimidazo [1,2-a]pyrazin-3-yl)amino)benzyl)phosphonic acid] were, in that order, 4360 ± 472 µM and 1280 ± 112 µM.
Regarding `O=P(O)(O)c1ccc(Nc2c(-c3ccccc3)nc3cnccn23)cc1` [Compound 3a, (4-((2-Phenylimidazo [1,2-a]pyrazin-3-yl)amino)phenyl)phosphonic acid], the results for the half-inhibitory concentration (IC50) on TDP1 (148–608) and on full-length TDP1 [2] were 4720 ± 430 µM and 2450 ± 36 µM, respectively.
Consider `O=P(O)(O)Cc1ccc(Nc2c(-c3ccccc3)nc3cc(-c4ccccc4)ccn23)cc1` [Compound 4c, (4-((2,7-Diphenylimidazo [1,2-a]pyridin-3-yl)amino)benzyl)phosphonic acid], for which the IC50 amounted to 1190 ± 350 µM against TDP1 (148–608) and 583 ± 11.5 µM at full-length TDP1 [2]. For the same compound, on full-length TDP1 [2] (full-length TDP1, 3c and 3e relative to 3b and 3d, 4c relative to 4b), the “Increase of inhibitory potency on adding a 7-phenyl group” value is reported as “approximately 3 fold”.
